The experiment has as its system atrophic retinal lesions in Stargardt disease patients. Kind of experiment: TEASE-1 growth rate of atrophic retinal lesions by fundus autofluorescence imaging. It counts as in vivo, human. Details: relative slower growth rate of atrophic retinal lesions versus control / Percentage Slowing of Atrophic Retinal Lesion Growth Rate: concentration or dose not given beside the values. As to the method:
The Tolerability and Effects of gildeuretinol acetate in Stargardt Disease (Clinical trial group 1, also known as TEASE-1) was a 24-month, multicenter, double-masked, placebo-controlled trial designed to evaluate the efficacy and safety of daily oral gildeuretinol acetate in slowing the growth of atrophic retinal lesions in Stargardt disease patients. The trial was conducted at multiple sites in the United States (NCT02402660).
Patients 12 years or older, clinically diagnosed with Stargardt disease, with at least one ABCA4 mutation, at least one eye presenting with well-demarcated areas of reduced fundus autofluorescence including retinal atrophic lesions, and with any visual acuity, were enrolled.
Patients were randomized to gildeuretinol acetate 14 mg capsules, gildeuretinol acetate 24 mg capsules, or placebo capsules, to be taken once daily for one year. After one year, 50% of randomly selected patients receiving placebo were crossed over in a 1:1 ratio to gildeuretinol acetate 14 mg capsules or gildeuretinol acetate 24 mg capsules for a second year.
Deidentified retinal images of patients not enrolled in the trial were included as a natural history cohort. This natural history cohort comprised patients diagnosed with Stargardt disease of any age, with two or more longitudinal fundus autofluorescence images taken at least four months apart over a maximum period of 2.5 years.
[…] retinal imaging comparing gildeuretinol acetate versus the untreated arm ([…]). Only well-delineated and homogeneous retinal atrophic lesions ≥0.2 mm^2 with a summed area ≥0.5 mm^2 were included in the primary analysis.
The primary endpoint analysis used a linear mixed-effect model (LMEM) with repeated measures, conferring a higher power to detect smaller effects. All observed data, including both eyes, were utilized. Treatment duration was computed as a continuous measure for each visit based on years since randomization. Adjustments for baseline retinal atrophy used the baseline atrophic retinal lesion size as a fixed effect in the LMEM. Additional fixed effects included treatment arm, treatment duration, and interaction between the treatment arm and treatment duration. Random effects included patient, eye, grader to adjust for correlation between eyes within a patient, graders' assessment of an eye, and observations of the same eye over time. A random effect slope term was added to the effect of treatment duration. Patients who crossed over to gildeuretinol acetate after year one were included in the untreated arm from baseline to year one, then in the gildeuretinol acetate arm from […] upon crossing over to gildeuretinol acetate. The full analysis set (FAS) comprised all randomized patients who received at least one dose of the study drug.
[…] All available data between 0 and 24 months was used to compute the slope of each segment. The primary efficacy endpoint was the slope of the second segment. No constraints were imposed on the Y-intercept. All growth rates were calculated on a per-year basis.
No imputations were made for missing data because the LMEM yields valid inferences under the assumption of a missing-at-random mechanism. The two-sided P-value of the primary efficacy endpoint was calculated using Kenward-Roger's method for handling denominator degrees of freedom and small samples. The goodness of fit of the linear mixed-effect model was provided as R-squared (R^2). Analyses were conducted in R (R Core Team, 2020). Prespecified, unadjusted sensitivity analyses of the primary efficacy endpoint included growth rates of untransformed areas of retinal atrophy and growth rates using a single-slope from baseline until the last available visit. Post-hoc unadjusted analyses were performed to evaluate the potential contribution of patient characteristics.

On to `[2H]C([2H])([2H])C(/C=C/C=C(C)/C=C/C1=C(C)CCCC1(C)C)=C\CO` [Gildeuretinol, C20D3-retinol], for which the “Percentage Slowing of Atrophic Retinal Lesion Growth Rate” value (“Percentage Slowing” for short) (Crossover patients: 12 months placebo vs. 12 months treatment) was found to be 21%; the “Percentage Slowing” value (Excluding 2 natural history cases <18 years old, 9 natural histories >60 years old) came out at 21%; the “Percentage Slowing” value (Excluding 3 randomized patients with one confirmed mutation) is 20%; the “Percentage Slowing” value (Excluding 13 natural history cases without any confirmed ABCA4 mutations and 6 natural histories with one confirmed mutation) turned out to be 20%; the “Percentage Slowing” value (Excluding 16 natural histories with only two follow up time points) is on record as 20%; the “Percentage Slowing” value (Excluding natural history, randomized patients only, one slope (mm^2)) is 30%. For the same molecule, the “Percentage Slowing” value runs as follows: (Excluding natural history, randomized patients only, two slopes (mm^2)) 23%; (Using a single-slope from 0 to 24 months (mm^2)) 31%; (Using untransformed areas of atrophic lesions (mm^2)) 28%.

The values above are taken from US20260256728A1, “TREATMENT FOR ASYMPTOMATIC STARGARDT DISEASE PATIENTS” (priority 2024, published 2026).
